Data on 1 compound can be found in patent US10004687B2 (priority 2005, dated 2018).

The conditions of data set [1]: animal studies to date; cited from earlier work.
In data set [2] the test system is pancreatic Bxpc-3, Capan-1, Capan-2, HS766-T and ASPC-1 cells. In words: MTT proliferation/survival assay, statements on all five pancreatic lines. Format: cell-based. Conditions: seventy-two hours of exposure. The procedure: (§1) Controls were exposed to 0.1% v/v DMSO. Proliferation and survival of the pancreatic cells were assessed by MTT assay, a standard colorimetric assay used to measure cell survival and proliferation (Mosman, 1983). MTT (3-[4,5-cimethylthiazol-2-yl]-2,5-diphenyl tetrazolium bromide) is cleaved by living cells to yield a dark blue formazan product. The color is quantitated by spectrophotometer and reflects cellular proliferation and survival. […] The control for each assay was exposed to 0.1% v/v DMSO.
(§2) MTT proliferation/survival assay was performed after 72 hours of incubation.
(§3) FIGS. 5-10 show graphs of the results of the assays using Bxpc-3, Capan-1, Capan-2, HS766-1 and ASPC-1 cell lines, respectively. […] The MTT assay was performed after pancreatic cells were exposed for 72 hours to each compound at concentrations ranging from 0 to 5 μg/ml.

For data set [3] the following is noted: cited from earlier work.
Data set [4] relates to pancreatic BxPC-3 or HS766-T cells. Put plainly: Apoptosis assay, Annexin-V/Proopidium iodide staining (FACS analysis). Format: cell-based. The following applies: concentrations equal to IC50 or IC90 of liposomal curcumin, 72 hours. As for the experimental part: Apoptosis assay was performed using either pancreatic BxPC-3 or HS766-T cells. […] After incubation for 72 hours, the cells were assayed using Annexin-V/Proopidium iodide staining (FACS analysis) to determine how much apoptosis had occurred.
On the technique in general: In flow cytometry, cells or beads pass a laser one at a time.

Data set [5] has as its system Capan-2 pancreatic carcinoma cells. Put plainly: MTT proliferation/survival assay, 72 hours incubation. The format is cell-based. Conditions: Homo sapiens, Capan-2, 72 h, CAPAN-2, MTT assay. The procedure:
as §1, §2, §3
(Tetrazolium dyes change colour on reduction, which living cells bring about.)

The subject of data set [6] is Bxpc-3 pancreatic carcinoma cells. The data set is described as above. The format is cell-based. The following applies: Homo sapiens. The procedure: as §1, §2, §3
Data set [7] has as its system Capan-1 pancreatic carcinoma cells. The data set is described as above. Format: cell-based. Conditions: Homo sapiens. As for the experimental part: as §1, §2, §3
In data set [8] the test system is ASPC-1 pancreatic carcinoma cells. The description is as above. Format: cell-based. The following applies: Homo sapiens, ASPC1, ASPC-1, MTT assay. The procedure:
as §1, §2, §3

Data set [9] relates to HS766-T pancreatic carcinoma cells. The description is as above. The format is cell-based. The following applies: Hs766T. The procedure: as §1, §2, §3

Converted amounts (≈) assume the structure as drawn. “And” between values parts separate entries of the source, which are not always exact repeats. Identical values can stand only once. Like-named read-outs stand apart in the source and are kept apart here.

In the case of `COc1cc(C=CC(=O)CC(=O)C=Cc2ccc(O)c(OC)c2)ccc1O` [free curcumin, (E,E)-1,7-bis(4-hydroxy-3-methoxyphenyl)-1,6-heptadiene-3,5,-dione], the LD50 result in data set [1] was “never reached an LD50”. In addition, the “pancreatic cell growth (MTT)” value in [2] was “inhibited pancreatic cell growth of all five lines tested in a concentration-dependent manner”. Further, in data set [3], the “solubility in ethanol, alkalis, ketones, acetic acid and chloroform” value is given as “soluble”. For the same compound, the solubility in water result in [3] (water) is “insoluble”. Besides, the apoptosis after treatment entry in data set [4] is “dose-related apoptosis”. The IC50 was 17 µg/mL (≈ 46.1 µM) in [5]; about 5 µM in data set [6] (read-out: 50% inhibitory concentration (IC50), BxPC-3 cells, approximate); 2 µg/mL and 5.4 µM in data set [6] (BXPC-3, MTT assay, 72 hours incubation, read-out: IC50); about 5 µM in data set [7] (read-out: 50% inhibitory concentration (IC50), Capan-1 cells, approximate); 2 µg/mL and 5.4 µM in data set [7] (CAPAN-1, MTT assay, 72 hours incubation, read-out: IC50); 4 µg/mL and 10.8 µM in [8]. Further, in data set [9], the IC50 is 2.6 µg/mL and 7 µM. For the same compound, the IC90 is 35 µg/mL (≈ 95 µM) in data set [5]; 5 µg/mL and 13.5 µM in [6] (BXPC-3, MTT assay, 72 hours incubation, read-out: IC90); about 14 µM in data set [6] (BxPC-3 cells, approximate, read-out: 90% inhibitory concentration (IC90)); 5 µg/mL and 13.5 µM in data set [7] (CAPAN-1, MTT assay, 72 hours incubation, read-out: IC90); about 14 µM in data set [7] (Capan-1 cells, approximate, read-out: 90% inhibitory concentration (IC90)); 10 µg/mL and 27 µM in data set [8]. Moreover, the IC90 in data set [9] was 8 µg/mL and 21.6 µM.
